From patent US8816097B2, “Active ingredient combinations having insecticide and acaricide properties” (Bayer CropScience AG, priority 2006, dated 2014)

Tests used:
[1] = tested on: two-spotted spider mite (Tetranychus urticae); experiment: Tetranychus urticae test (sprayed dwarf bean leaves); format: in vivo; details: single active compound
Source text: (§1) Solvents: 78 parts by weight of acetone

[2] = tested on: larvae of the army worm (Spodoptera frugiperda); experiment: Spodoptera frugiperda test (sprayed cabbage leaves); format: in vivo; details: single active compound, 100 g/ha
Source text: as §1

[3] = tested on: larvae of the mustard beetle (Phaedon cochleariae); experiment: Phaedon cochleariae larvae test (sprayed cabbage leaves); details: single active compound, 100 g/ha
[4] = tested on: green peach aphid (Myzus persicae); experiment: Myzus persicae test (sprayed cabbage leaves); format: in vivo; details: single active compound, 100 g/ha
Source text: as §1

SMILES	Kill rate in % after 2d ([1]; 0.8 g/ha)	Kill level in % after 6d [2]	Kill level in % after 6d [3]	Kill rate in % after 2d ([1]; 0.032 g/ha)	Kill level in % after 6d [4]	Kill rate in % after 2d ([1]; 0.16 g/ha)
CCC(C)(C)C(=O)OC1=C(c2ccc(Cl)cc2Cl)C(=O)OC12CCCCC2 [Spirodiclofen]	10%	–	–	–	–	–
CCOC(=O)OC1=C(c2cc(C)ccc2C)C(=O)N[C@]12CC[C@@H](OC)CC2 [Spirotetramat]	0%	50%	33%	–	–	–
CSC(=O)O/C(=C(/C#N)c1ccc(Cl)cc1)c1ccccc1C(F)(F)F [IKA 2002]	0%	0%	33%	0%	–	–
Cc1cc(C)c(C2=C(OC(=O)CC(C)(C)C)C3(CCCC3)OC2=O)c(C)c1 [Spiromesifen]	10%	–	–	–	70%	0%
COCCOC(=O)C(C#N)(C(=O)c1ccccc1C(F)(F)F)c1ccc(C(C)(C)C)cc1 (stereo not drawn) [Cyflumetofen, 2-methoxyethyl alpha-cyano-alpha-[4-(1,1-dimethylethyl)phenyl]-beta-oxo-2-(trifluoromethyl)benzenepropanoate]	20%	0%	0%	–	0%	–
Cc1nn(C)c(/C(OC(=O)C(C)(C)C)=C(\C#N)c2ccc(C(C)(C)C)cc2)c1C [Cyenopyrafen, (1E)-2-cyano-2-[4-(1,1-dimethylethyl)phenyl]-1-(1,3,4-trimethyl-1H-pyrazol-5-yl)ethenyl 2,2-dimethylpropanoate]	80%	–	50%	–	0%	–
